In US20110275559A1, “Long-Acting Y2 and/or Y4 Receptor Agonists” (Novo Nordisk A/S, priority 2008, published 2011):
*1 amine or outer side, *2 acyl side, *3 side chain or, on linkers, in order; H or OH if unused. Where a SMILES comes first, the peptide text is derived from it. Side-chain parts run from the residue outwards. The star is where a group is joined. C20 diacid = O=C(O)CCCCCCCCCCCCCCCCCCC(=O)*; C18 diacid = O=C(O)CCCCCCCCCCCCCCCCC(=O)*; γGlu = O=C(O)[C@H](CCC(=O)[*:2])N[*:1]; Trx = NC[C@H]1CC[C@H](C(=O)O)CC1; AEEA = NCCOCCOCC(=O)O

Test: in vivo
Conditions: Göttingen, minipig, iv
Procedure: (§1) The mini-pigs had two central venous catheters inserted which were used for intra venous (i.v.) dosing and bloodsampling. Compound was dissolved in 50 mM K2HPO4, 0.05% tween 80, pH=8.0 to a concentration of 180 nmol/ml. The pigs were dosed with 6 nmol compound/kg body weight. […] The blood samples were collected into test tubes containing EDTA buffer for stabilization and kept on ice for max. 20 minutes before centrifugation. The centrifugation procedure to separate plasma was; 4° C., 3000 rpm for 10 minutes. Plasma were collected and immediately transferred to Micronic tubes stored at −20° C. until assayed.
An additional mini-pig PK assay was used for measuring PK of the compounds of the invention. […] The animals had two central venous catheters inserted which were used for intra venous (i.v.) dosing and blood sampling. Compounds were dissolved in 10 mM Na2HPO4, 150 mM NaCl, 0.01% tween 80, pH=4.0 to concentrations in the range of 40 nmol/ml to 200 nmol/ml. The mini-pigs were dosed i.v. with 10 nmol compound/kg body weight, occasionally other doses such as 4 nmol/kg, 30 nmol/kg or 50 nmol/kg were administered. Each compound was dosed to 3 or 4 mini-pigs, and two compounds may be given simultaneously to the same animal. Blood were sampled pre-dose and 12 times during the first 10 hours post-dose. Blood were furthermore sampled once daily until 13 days post dosing. The blood samples were collected into test tubes containing EDTA buffer, trasylol and Val-Pyr for stabilization and kept on ice for max. 20 minutes. Samples were centrifuged at 4° C., 2000G for 10 minutes to separate plasma. Plasma were collected and immediately transferred to Micronic tubes stored at −20° C. until assayed.
Plasma samples were analysed by LC-MS on an LTQ-Orbitrap (ThermoFisher Scientific, Bremen) to which Accela HPLC pumps and an autosampler were connected (both from ThermoFisher). […] HPLC was performed on a Jupiter Proteo column (4μ) 90A (50×2.0 mm ID). […] The flow rate was 0.3 ml/min. For analysis of plasma samples, 30 μl plasma was precipitated with 90 μl ethanol. […] The heptane phase was removed after 5 min and the remaining solution was analysed by LC-MS as described above. For construction of plasma standards, compound was spiked to plasma (minipig) at the following concentrations: 1 nM, 2 nM, 5 nM, 10 nM, 20 nM, 50 nM, 100 nM, 200 nM. The plasma standards were treated as the samples. The lower limit of quantification was estimated to 2 nM.
Non-compartmental analysis (NCA): Plasma concentration-time profiles were analyzed by non-compartmental pharmacokinetics analysis (NCA) using WinNonlin Professional 5.0 (Pharsight Inc., Mountain View, Calif., USA). NCA was performed using the individual plasma concentration-time profiles from each animal.
For determination of plasma concentration of the PYY and PP peptide derivative or analogues thereof the following Methods 1-4 were used.
as §1, with “bloodsampling. The compound” for “bloodsampling. Compound”, “to an appropriate” for “to a”, “concentration (e.g. 25-500 nmol/mL).” for “concentration of 180 nmol/ml.”, “dosed intravenously (i.v.) or subcutaneously (s.c.)” for “dosed”, “with between 1 and 30” for “with 6”, “buffer (with Aprotinin 15000 KIE/mL and Val-Pyr 0.30 mM)” for “buffer”
An additional mini-pig PK assay was used for measuring PK of the compounds of the invention. […] The animals had two central venous catheters inserted which were used for intra venous (i.v.) dosing and blood sampling.

| half-life (10 nmol/kg) | Structure (SMILES) | further results |
| --- | --- | --- |
| – | CC[C@H](C)[C@H](NC(=O)[C@H](Cc1ccc(O)cc1)NC(=O)[C@H](CCCNC(=N)N)NC(=O)[C@H](CCCNC(=N)N)NC(=O)[C@H](CC(C)C)NC(=O)[C@H](CC(=O)O)NC(=O)[C@H](C)NC(=O)[C@H](C)NC(=O)[C@H](Cc1ccc(O)cc1)NC(=O)[C@H](CCC(N)=O)NC(=O)[C@H](C)NC(=O)[C@H](CCSC)NC(=O)[C@H](CCC(N)=O)NC(=O)[C@H](CCC(=O)O)NC(=O)[C@@H]1CCCN1C(=O)[C@H](CCCCNC(=O)COCCOCCNC(=O)COCCOCCNC(=O)CC[C@H](NC(=O)CCCCCCCCCCCCCCCCC(=O)O)C(=O)O)NC(=O)[C@H](C)NC(=O)[C@H](CC(N)=O)NC(=O)[C@H](CC(=O)O)NC(=O)CNC(=O)[C@@H]1CCCN1C(=O)[C@H](Cc1ccc(O)cc1)NC(=O)[C@@H](NC(=O)[C@@H]1CCCN1C(=O)[C@H](CCC(=O)O)NC(=O)[C@H](CC(C)C)NC(=O)[C@@H]1CCCN1C(=O)[C@H](C)N)C(C)C)C(=O)N[C@@H](CC(N)=O)C(=O)N[C@@H](CCSC)C(=O)N[C@@H](CC(C)C)C(=O)N[C@H](C(=O)N[C@@H](CCCNC(=N)N)C(=O)N1CCC[C@H]1C(=O)N[C@@H](CCCNC(=N)N)C(=O)N[C@@H](Cc1ccc(O)cc1)C(N)=O)[C@@H](C)O [SEQ ID NO: 24, N-epsilon13-[2-(2-{2-[2-(2-{2-[(S)-4-Carboxy-4-(17-carboxyheptadecanoylamino)butyrylamino]ethoxy}ethoxy)acetylamino]-ethoxy}ethoxy)acetyl][Lys13]hPP(1-36)] (H-APLEPVYPGDNAK([AEEA-AEEA-γGlu-C18 diacid])PEQMAQYAADLRRYINMLTRPRY-NH2; N-terminus and C-terminus assumed) | half-life (20 nmol/kg): 3.5 h |
| – | CC[C@H](C)[C@H](NC(=O)[C@H](Cc1ccc(O)cc1)NC(=O)[C@H](CCCNC(=N)N)NC(=O)[C@H](CCCNC(=N)N)NC(=O)[C@H](CC(C)C)NC(=O)[C@H](CC(=O)O)NC(=O)[C@H](C)NC(=O)[C@H](C)NC(=O)[C@H](Cc1ccc(O)cc1)NC(=O)[C@H](CCC(N)=O)NC(=O)[C@H](C)NC(=O)[C@H](CC(C)C)NC(=O)[C@H](CCC(N)=O)NC(=O)[C@H](CCC(=O)O)NC(=O)[C@@H]1CCCN1C(=O)[C@@H](NC(=O)[C@H](C)NC(=O)[C@H](CC(N)=O)NC(=O)[C@H](CCCCNC(=O)COCCOCCNC(=O)COCCOCCNC(=O)CC[C@H](NC(=O)[C@H]1CC[C@H](CNC(=O)CCCCCCCCCCCCCCCCCCC(=O)O)CC1)C(=O)O)NC(=O)CNC(=O)[C@@H]1CCCN1C(=O)[C@H](Cc1ccc(O)cc1)NC(=O)[C@@H](NC(=O)[C@@H]1CCCN1C(=O)[C@H](CCC(=O)O)NC(=O)[C@H](CC(C)C)NC(=O)[C@@H]1CCCN1)C(C)C)[C@@H](C)O)C(=O)N[C@@H](CC(N)=O)C(=O)N[C@@H](CC(C)C)C(=O)N[C@@H](CC(C)C)C(=O)N[C@H](C(=O)N[C@@H](CCCNC(=N)N)C(=O)N[C@@H](CCC(N)=O)C(=O)N[C@@H](CCCNC(=N)N)C(=O)N[C@@H](Cc1ccc(O)cc1)C(N)=O)[C@@H](C)O [SEQ ID NO: 39, N-epsilon10-[2-(2-{2-[2-(2-{2-[(S)-4-Carboxy-4-({trans-4-[(19-carboxynonadecanoylamino)methyl]cyclohexanecarbonyl}amino)butyrylamino]-ethoxy}ethoxy)acetylamino]ethoxy}ethoxy)acetyl][Lys10,Leu17,Leu30,Gln34]hPP2-36] (H-PLEPVYPGK([AEEA-AEEA-γGlu-Trx-C20 diacid])NATPEQLAQYAADLRRYINLLTRQRY-NH2; N-terminus and C-terminus assumed) | half-life (in vivo, 4 nmol/kg): 32 h |
| 78 h | CC[C@H](C)[C@H](NC(=O)[C@H](Cc1ccc(O)cc1)NC(=O)[C@H](CCCNC(=N)N)NC(=O)[C@H](CCCNC(=N)N)NC(=O)[C@H](CC(C)C)NC(=O)[C@H](CC(=O)O)NC(=O)[C@H](C)NC(=O)[C@H](C)NC(=O)[C@H](Cc1ccc(O)cc1)NC(=O)[C@H](CCC(N)=O)NC(=O)[C@H](C)NC(=O)[C@H](CC(C)C)NC(=O)[C@H](CCC(N)=O)NC(=O)[C@H](CCC(=O)O)NC(=O)[C@@H]1CCCN1C(=O)[C@@H](NC(=O)[C@H](C)NC(=O)[C@H](CC(N)=O)NC(=O)[C@H](CC(=O)O)NC(=O)CNC(=O)[C@@H]1CCCN1C(=O)[C@H](Cc1ccc(O)cc1)NC(=O)[C@@H](NC(=O)[C@@H]1CCCN1C(=O)[C@H](CCC(=O)O)NC(=O)[C@H](CC(C)C)NC(=O)[C@@H]1CCCN1)C(C)C)[C@@H](C)O)C(=O)N[C@@H](CC(N)=O)C(=O)N[C@@H](CC(C)C)C(=O)N[C@@H](CC(C)C)C(=O)N[C@H](C(=O)N[C@@H](CCCNC(=N)N)C(=O)N1CCC[C@H]1C(=O)N[C@@H](CCCCNC(=O)COCCOCCNC(=O)COCCOCCNC(=O)CC[C@H](NC(=O)CCCCCCCCCCCCCCCCC(=O)O)C(=O)O)C(=O)N[C@@H](Cc1ccc(O)cc1)C(N)=O)[C@@H](C)O [SEQ ID NO: 47, N-epsilon35-[2-(2-{2-[2-(2-{2-[(S)-4-Carboxy-4-(17-carboxyheptadecanoylamino)butyrylamino]ethoxy}ethoxy)acetylamino]-ethoxy}ethoxy)acetyl][Leu17,Leu30,Lys35]hPP2-36] (H-PLEPVYPGDNATPEQLAQYAADLRRYINLLTRPK([AEEA-AEEA-γGlu-C18 diacid])Y-NH2) | – |
| 88 h | CC[C@H](C)[C@H](NC(=O)[C@H](Cc1ccc(O)cc1)NC(=O)[C@H](CCCNC(=N)N)NC(=O)[C@H](CCCCNC(=O)COCCOCCNC(=O)COCCOCCNC(=O)CC[C@H](NC(=O)CCCCCCCCCCCCCCCCC(=O)O)C(=O)O)NC(=O)[C@H](CC(C)C)NC(=O)[C@H](CC(=O)O)NC(=O)[C@H](C)NC(=O)[C@H](C)NC(=O)[C@H](Cc1ccc(O)cc1)NC(=O)[C@H](CCC(N)=O)NC(=O)[C@H](C)NC(=O)[C@H](CC(C)C)NC(=O)[C@H](CCC(N)=O)NC(=O)[C@H](CCC(=O)O)NC(=O)[C@@H]1CCCN1C(=O)[C@@H](NC(=O)[C@H](C)NC(=O)[C@H](CC(N)=O)NC(=O)[C@H](CC(=O)O)NC(=O)CNC(=O)[C@@H]1CCCN1C(=O)[C@H](Cc1ccc(O)cc1)NC(=O)[C@@H](NC(=O)[C@@H]1CCCN1C(=O)[C@H](CCC(=O)O)NC(=O)[C@H](CC(C)C)NC(=O)[C@@H]1CCCN1)C(C)C)[C@@H](C)O)C(=O)N[C@@H](CC(N)=O)C(=O)N[C@@H](CC(C)C)C(=O)N[C@@H](CC(C)C)C(=O)N[C@H](C(=O)N[C@@H](CCCNC(=N)N)C(=O)N1CCC[C@H]1C(=O)N[C@@H](CCCNC(=N)N)C(=O)N[C@@H](Cc1ccc(O)cc1)C(N)=O)[C@@H](C)O [SEQ ID NO: 49, N-epsilon25-[2-(2-{2-[2-(2-{2-[(S)-4-Carboxy-4-(17-carboxyheptadecanoylamino)butyrylamino]ethoxy}ethoxy)acetylamino]-ethoxy}ethoxy)acetyl][Leu17,Lys25,Leu30]hPP2-36] (H-PLEPVYPGDNATPEQLAQYAADLK([AEEA-AEEA-γGlu-C18 diacid])RYINLLTRPRY-NH2) | – |
